These results are taken from patent US9284330B2 (priority 2011, dated 2016).

pIC50: −log10 of the molar value. Like-named read-outs stand apart in the source and are kept apart here.

For data set [1], the system named is L-type Ca2+ channel. In words: Blocking of L-type Ca2+ channel by high content screening analyzer, KCl-induced calcium ion influx in SH-SY5Y cells (Fluo-4-AM).
The next data set addresses acetylcholinesterase (Electrophorus electricus (Electric eel) (Gymnotus electricus), UniProt O42275). In words: biochemical.
Data set [2] deals with primary cortical neuron cells. The settings on record: 24 h incubation.
Data set [3] has as its system L-type Ca2+ channel. The data set is described as follows: Blocking of L-type Ca2+ channel by patch clamp, calcium current in rat dorsal root ganglion cells. As to conditions: whole cell patch clamp. It is filed as cell-based.

Sequence of acetylcholinesterase (O42275 whole entry, looked up): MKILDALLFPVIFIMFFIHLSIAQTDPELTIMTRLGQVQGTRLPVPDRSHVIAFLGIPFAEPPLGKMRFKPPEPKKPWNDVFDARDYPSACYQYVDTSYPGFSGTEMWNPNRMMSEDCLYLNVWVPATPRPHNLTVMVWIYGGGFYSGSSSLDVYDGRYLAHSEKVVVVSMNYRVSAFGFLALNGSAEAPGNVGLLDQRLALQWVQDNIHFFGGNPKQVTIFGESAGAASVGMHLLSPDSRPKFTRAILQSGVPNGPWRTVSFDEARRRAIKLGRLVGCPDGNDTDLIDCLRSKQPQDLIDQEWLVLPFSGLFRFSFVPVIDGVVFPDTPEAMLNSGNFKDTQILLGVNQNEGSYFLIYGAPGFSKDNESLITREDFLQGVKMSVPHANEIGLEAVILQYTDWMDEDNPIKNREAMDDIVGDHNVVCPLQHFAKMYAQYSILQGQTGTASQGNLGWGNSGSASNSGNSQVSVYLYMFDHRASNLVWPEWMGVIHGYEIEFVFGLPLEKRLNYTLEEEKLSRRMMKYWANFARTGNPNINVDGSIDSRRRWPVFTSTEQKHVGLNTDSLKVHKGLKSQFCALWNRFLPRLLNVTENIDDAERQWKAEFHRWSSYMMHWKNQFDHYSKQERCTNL

A word on the pIC50: it is −log10 of the IC50, conventionally taken in molar units. With `CCOC(=O)C1=C(C)Nc2nc3c(c(N)c2C1c1ccc(C(F)(F)F)cc1)CC(C)CC3` (stereo not drawn) [Compound S2, 5-amino-2,7-dimethyl-4-(4-trifluoromethylphenyl)-1,4,6,7,8,9-hexahydrobenzo[b][1,8]naphthyridine-3-carboxylic acid ethyl ester], the “Inhibition rate of KCl-induced calcium ion influx” value is given as 38.79% in the data set on L-type Ca2+ channel [1] (10 μM compound) and 94.01% in the data set on L-type Ca2+ channel [1] (50 μM compound). This molecule showed a pIC50 against acetylcholinesterase of 6.25.

Take `CCOC(=O)C1=C(C)Nc2nc3c(c(N)c2C1c1cccc(C(F)(F)F)c1)CC(C)(C)CC3` (stereo not drawn) [Compound S4, 5-amino-4-(3-trifluoromethylphenyl)-2,7,7-trimethyl-1,4,6,7,8,9-hexahydrobenzo[b][1,8]naphthyridine-3-carboxylic acid ethyl ester]: the “Inhibition rate of KCl-induced calcium ion influx” value in the data set on L-type Ca2+ channel [1] (10 μM compound) turned out to be 64.82%; in the data set with L-type Ca2+ channel [1] (50 μM compound), 85.17%. Besides, the pIC50 at acetylcholinesterase was 5.98.

`C=CCOC(=O)C1=C(C)Nc2nc3c(c(N)c2C1c1cccc([N+](=O)[O-])c1)CC(C)(C)CC3` (stereo not drawn) [Compound S5, 5-amino-4-(3-nitrophenyl)-2,7,7-trimallyl1,4,6,7,8,9-hexahydrobenzo[b][1,8]naphthyr idine-3-carboxylic acid allyl ester]: the “Inhibition rate of KCl-induced calcium ion influx” value with L-type Ca2+ channel [1] (10 μM compound) is 14.40%; in the data set with L-type Ca2+ channel [1] (50 μM compound) it was 62.43%. At acetylcholinesterase, the pIC50 is 6.11.

As for `COC(=O)C1=C(C)Nc2nc3c(c(N)c2C1c1ccccc1)CC(C)(C)CC3` (stereo not drawn) [Compound S7, 5-amino-4-phenyl-2,7,7-trimethyl-1,4,6,7,8,9-hexahydrobenzo[b][1,8]naphthyridine-3-carboxylic acid methyl ester], the “Inhibition rate of KCl-induced calcium ion influx” value in the data set on L-type Ca2+ channel [1] (10 μM compound) is 1.01%; with L-type Ca2+ channel [1] (50 μM compound), 72.98%. The molecule further had a pIC50 at acetylcholinesterase of 5.86.

Turning to `CC1=C(C(=O)OC2CCC2)C(c2ccccc2F)c2c(nc3c(c2N)CC(C)(C)CC3)N1` (stereo not drawn) [Compound S9, 5-amino-4-(2-fluorophenyl)-2,7,7-trimethyl-1,4,6,7,8,9-hexahydrobenzo[b][1,8]napht hyridine-3-carboxylic acid cyclobutyl ester], the “Inhibition rate of KCl-induced calcium ion influx” value is 5.22% in the data set with L-type Ca2+ channel [1] (10 μM compound) and 85.01% in the data set with L-type Ca2+ channel [1] (50 μM compound). Further, the pIC50 at acetylcholinesterase is 6.04.

For the molecule `COCCOC(=O)C1=C(C)Nc2nc3c(c(N)c2C1c1ccccc1Cl)CC(C)(C)CC3` (stereo not drawn) [Compound S10, 5-amino-4-(2-chlorphenyl)-2,7,7-trimethyl-1,4,6,7,8,9-hexahydrobenzo[b][1,8]naphth yridine-3-carboxylic acid methoxylethyl ester], the “Inhibition rate of KCl-induced calcium ion influx” value in the data set on L-type Ca2+ channel [1] (10 μM compound) amounted to 49.97%; with L-type Ca2+ channel [1] (50 μM compound), 83.29%. Besides, at acetylcholinesterase, the pIC50 is 6.01. Moreover, the “Relative neuron activity (average)” value in data set [2] (0.01 μM) came to 120.7%; in data set [2] (0.1 μM) it was 96.3%; in data set [2] (1 μM) it was 70.3%.

As to `CC1=C(C(=O)OCC2CC2)C(c2ccccc2Cl)c2c(nc3c(c2N)CC(C)(C)CC3)N1` (stereo not drawn) [Compound S11, 5-amino-4-(2-chlorphenyl)-2,7,7-trimethyl-1,4,6,7,8,9-hexahydrobenzo[b][1,8]naphth yridine-3-carboxylic acid cyclopropylmethyl ester], the figures for the “Inhibition rate of KCl-induced calcium ion influx” value in the data set with L-type Ca2+ channel [1] (10 μM compound) and with L-type Ca2+ channel [1] (50 μM compound) were 54.69% and 75.06%, respectively.

Regarding `COC(=O)C1=C(C)Nc2nc3c(c(N)c2C1c1ccccc1)CN(C)CC3` (stereo not drawn) [Compound S12, 5-amino-2,7-dimethyl-4-phenyl-1,4,6,7,8,9-hexahydropyrido[2,3-b][1,6]naphthyridine-3-carboxylic acid methyl ester], the “Inhibition rate of KCl-induced calcium ion influx” value in the data set on L-type Ca2+ channel [1] (10 μM compound) is reported as 34.59%; in the data set on L-type Ca2+ channel [1] (50 μM compound) it was 52.61%.

In the case of `COC(=O)C1=C(C)Nc2nc3c(c(N)c2C1c1cccc([N+](=O)[O-])c1)CCC(C)=C3` (stereo not drawn) [Compound S18, 5-amino-2,8-dimethyl-4-(3-nitrophenyl)-1,4,6,7-tetrahydrobenzo[b][1,8]naphthyridine-3-carboxylic acid methyl ester], the pIC50 at acetylcholinesterase is 6.30.

In the case of `CCOC(=O)C1=C(C)Nc2nc3c(c(N)c2C1c1cccc([N+](=O)[O-])c1)CC(F)(F)CC3` (stereo not drawn) [Compound S19, 5-amino-7,7-difluoro-2-methyl-4-(3-nitrophenyl)-1,4,6,7,8,9-hexahydrobenzo[b][1,8]naphthyridine-3-carboxylic acid ethyl ester], the “Inhibition rate of L-type Ca2+ channel current” value with L-type Ca2+ channel [3] (100 nmol/L compound) is on record as 4.12%; with L-type Ca2+ channel [3] (1000 nmol/L compound), 26.29%. Also, the pIC50 on acetylcholinesterase was 6.48.

With `CCOC(=O)C1=C(C)Nc2nc3c(c(N)c2C1c1cccc([N+](=O)[O-])c1)CC(Cl)(Cl)CC3` (stereo not drawn) [Compound S20, 5-amino-7,7-dichloro-2-methyl-4-(3-nitrophenyl)-1,4,6,7,8,9-hexahydrobenzo[b][1,8]naphthyridine-3-carboxylic acid ethyl ester], the “Inhibition rate of KCl-induced calcium ion influx” value with L-type Ca2+ channel [1] (10 μM compound) was found to be 46.88%; in the data set with L-type Ca2+ channel [1] (50 μM compound), 99.27%. For the same molecule, the “Relative neuron activity (average)” value in data set [2] (0.01 μM) was found to be 103.9%; in data set [2] (0.1 μM), 98.5%; in data set [2] (1 μM), 47.5%.

With `CCC1=C(C(=O)OC)C(c2cccc([N+](=O)[O-])c2)c2c(nc3c(c2N)CC(C)(C)CC3)N1` (stereo not drawn) [Compound S25, 5-amino-7,7-dimethyl-4-(3-nitrophenyl)-2-ethyl-1,4,6,7,8,9-hexahydrobenzo[b][1,8]n aphthyridine-3-carboxylic acid methyl ester], the “Inhibition rate of KCl-induced calcium ion influx” value in the data set with L-type Ca2+ channel [1] (10 μM compound) is 1.02%; in the data set with L-type Ca2+ channel [1] (50 μM compound) it was 63.52%. Further, the pIC50 at acetylcholinesterase was 6.07.

As for `CC1=C(C(=O)OC(C)C)C(c2cncnc2)c2c(nc3c(c2N)CC(C)(C)CC3)N1` (stereo not drawn) [Compound S26, 5-amino-2,7,7-trimethyl-4-(pyrimidin-5-yl)-1,4,6,7,8,9-hexahydrobenzo[b][1,8]napht hyridine-3-carboxylic acid isopropyl ester], the “Inhibition rate of KCl-induced calcium ion influx” value in the data set on L-type Ca2+ channel [1] (10 μM compound) was found to be 30.18%; with L-type Ca2+ channel [1] (50 μM compound), 41.41%.

`CCOC(=O)C1=C(C)Nc2nc3c(c(N)c2C1c1ccccc1OC)CC(C)CC3` (stereo not drawn) [Compound S28, 5-amino-4-(2-methoxylphenyl)-2,7-dimethyl-1,4,6,7,8,9-hexahydrobenzo[b][1,8]naph thyridine-3-carboxylic acid ethyl ester] showed a pIC50 on acetylcholinesterase of 6.87.

Regarding `COC(=O)C1=C(C)Nc2nc3c(c(N)c2C1c1cccc([N+](=O)[O-])c1)CC(C)(C)CC3` (stereo not drawn) [Compound S30, 5-amino-2,7,7-trimethyl-4-(3-nitrophenyl)-1,4,6,7,8,9-hexahydrobenzo[b][1,8]naphth yridine-3-carboxylic acid methyl ester], the “Inhibition rate of KCl-induced calcium ion influx” value with L-type Ca2+ channel [1] (10 μM compound) worked out at 29.44%; in the data set with L-type Ca2+ channel [1] (50 μM compound) it was 80.73%. The molecule further showed a pIC50 against acetylcholinesterase of 5.22.

On to `CCOC(=O)C1=C(C)Nc2nc3c(c(N)c2C1c1cccc([N+](=O)[O-])c1)CC(C)(C)CC3` (stereo not drawn) [Compound S31, 5-amino-2,7,7-trimethyl-4-(3-nitrophenyl)-1,4,6,7,8,9-hexahydrobenzo[b][1,8]naphth yridine-3-carboxylic acid ethyl ester], for which the “Inhibition rate of KCl-induced calcium ion influx” value in the data set with L-type Ca2+ channel [1] (10 μM compound) was found to be 19.10%; in the data set on L-type Ca2+ channel [1] (50 μM compound), 93.34%. The molecule further had a pIC50 against acetylcholinesterase of 5.52.

Regarding `CC1=C(C(=O)OC(C)C)C(c2cccc(Cl)c2)c2c(nc3c(c2N)CC(C)(C)CC3)N1` (stereo not drawn) [Compound S33, 5-amino-2,7,7-trimethyl-4-(3-chlorphenyl)-1,4,6,7,8,9-hexahydrobenzo[b][1,8]naphth yridine-3-carboxylic acid isopropyl ester], on acetylcholinesterase, the pIC50 was 5.74.

Turning to `CCOC(=O)C1=C(C)Nc2nc3c(c(N)c2C1c1cccc(F)c1)CC(C)(C)CC3` (stereo not drawn) [Compound S34, 5-amino-2,7,7-trimethyl-4-(3-fluorophenyl)-1,4,6,7,8,9-hexahydrobenzo[b][1,8]napht hyridine-3-carboxylic acid ethyl ester], the “Inhibition rate of KCl-induced calcium ion influx” value in the data set on L-type Ca2+ channel [1] (10 μM compound) was 39.53%; in the data set with L-type Ca2+ channel [1] (50 μM compound), 88.96%. For the same molecule, at acetylcholinesterase, the pIC50 was 5.75.

The molecule `C=CCOC(=O)C1=C(C)Nc2nc3c(c(N)c2C1c1cccc(F)c1)CC(C)(C)CC3` (stereo not drawn) [Compound S35, 5-amino-4-(3-fluorophenyl)-2,7,7-trimethyl-1,4,6,7,8,9-hexahydrobenzo[b][1,8]napht hyridine-3-carboxylic acid allyl ester] gave a pIC50 at acetylcholinesterase of 5.75.

As to `C#CCOC(=O)C1=C(C)Nc2nc3c(c(N)c2C1c1cccc(F)c1)CC(C)(C)CC3` (stereo not drawn) [Compound S36, 5-amino-2,7,7-trimethyl-4-(3-fluorophenyl)-1,4,6,7,8,9-hexahydrobenzo[b][1,8]napht hyridine-3-carboxylic acid propargyl ester], at acetylcholinesterase, the pIC50 was 5.71.

As to `C#CCOC(=O)C1=C(C)Nc2nc3c(c(N)c2C1c1cccc([N+](=O)[O-])c1)CC(C)(C)CC3` (stereo not drawn) [Compound S37, 5-amino-4-(3-nitrophenyl)-2,7,7-trimethyl-1,4,6,7,8,9-hexahydrobenzo[b][1,8]naphth yridine-3-carboxylic acid propargyl ester], on acetylcholinesterase, the pIC50 was 5.73.

For `CCOC(=O)C1=C(C)N(C)c2nc3c(c(N)c2C1c1ccccc1Cl)CC(C)(C)CC3` (stereo not drawn) [Compound S38, 5-amino-4-(2-chlorphenyl)-1,2,7,7-tetramethyl-1,4,6,7,8,9-hexahydrobenzo[b][1, 8]na phthyridine-3-carboxylic acid ethyl ester], the “Inhibition rate of KCl-induced calcium ion influx” value was 17.97% with L-type Ca2+ channel [1] (10 μM compound) and 51.19% in the data set on L-type Ca2+ channel [1] (50 μM compound).

On to `COC(=O)C1=C(C)NC(C)=C(C(=O)OC)C1c1ccccc1[N+](=O)[O-]` [Nifedipine, reference compound], for which the “Inhibition rate of L-type Ca2+ channel current” value with L-type Ca2+ channel [3] (100 nmol/L compound) stood at 22.48%; with L-type Ca2+ channel [3] (1000 nmol/L compound), 36.15%.
